One test concerns the target STK4 (Homo sapiens (Human), UniProt Q13043). The test is described as follows: PhosphoSens CSox-based Sensor Assay, STK4. Format: biochemical. The conditions noted are these: Km ATP, mean n = 2. Here is the method:
(§1) Materials were obtained and prepared according to the assay manufacturer's protocol (Assay Quant Technologies: Marlborough, MA, USA). The 50 μL reaction was initiated by addition of a master mix containing the compounds or vehicle, kinase, and CSox-peptide substrate to a well containing the remaining components. […] Final concentrations were: […] HEPES pH 7.5, 50 μM ATP, 1.0 mM DTT, 0.01% Brij-35, 0.5 mM EGTA, 10 mM MgCl2, 10 μM peptide substrate (AQT0135), and 5.0 nM STK3 (SignalChem #S24-10G) or STK4 (SignalChem #S25-10G) kinases. […] Background-corrected RFU were plotted against time using Prism 8 software. Velocity determinations were calculated for each reaction and plotted versus compound concentration to generate inhibitor curves.
(§2) The PhosphoSens® CSox-based Sensor real-time kinetic assay uses a peptide substrate containing an unnatural amino acid and physiological Mg^2+ levels to quantify substrate phosphorylation using fluorescence.

Another test concerns the target kinase domain of STK4 (Homo sapiens (Human), UniProt Q13043). The test is described as follows: Isothermal titration calorimetry (ITC), STK4. In kind it is binding. The conditions noted are these: 25° C. Here is the method:
(§3) All ITC experiments were performed using NanoITC (TA Instruments: New Castle, DE, USA) at 25° C. in a buffer containing 20 mM Tris pH 7.5, 150 mM NaCl, and 0.5 mM TCEP. […] For this protocol the chamber was pre-equilibrated with the test compound, and the kinase domain of STK3 or STK4 was titrated in while continuously measuring the rate of exothermic heat evolution. The heat of binding was integrated, corrected, and fitted to an independent single-binding site model based on the manufacturer's protocol, from which thermodynamic parameters (ΔH and TΔS), equilibrium association and dissociation constants (Ka and KD), and stoichiometry (n) were calculated.
(§4) Isothermal titration calorimetry (ITC) was used to determine the thermodynamic properties of the compounds.

A further test addresses STK3 (Homo sapiens (Human), UniProt Q13188). The test is described as follows: PhosphoSens CSox-based Sensor Assay, STK3. The conditions noted are these: Km ATP, mean n = 2. Format: biochemical. How it is done:
as §1, §2

The test system of test [1] is phosphorylated MOB1 (Thr35) in HEK293 cells. In words: Western blot analysis of p-MOB1 in HEK293 cells. In kind it is cell-based. As to conditions: 10 μM, 4 h, then H2O2 50 μM 2 h, vs DMSO. How it is done:
Cells were harvested by pipetting, pelleted by centrifugation at 1400 rpm for 4 min, and lysed in RIPA buffer for 10 min at room temperature. The lysates were centrifuged at 12,000×g at room temperature (RT) for 10 min and the supernatants were recovered. Protein concentrations in the supernatants were determined using a BCA assay (Pierce/Thermo Scientific). Proteins were separated on NovexTM WedgeWellTM 4-20% Tris-Glycine Gels (Invitrogen; Carlsbad, CA, USA) and transferred to polyvinylidene difluoride (Trans-Blot® TurboTM Transfer Pack) membranes. […] Danvers. MA. USA). Blots were rinsed three times with TBST and then incubated in 5% nonfat milk containing horseradish peroxidase (HRP)-conjugated mouse anti-rabbit IgG secondary Ab (Cell Signaling Technology) for 1 h at RT. Blots were washed three times with TBST, developed using Pierce® ECL Western Blotting reagent, and imaged and analyzed using with ImageJ software. Quantitative data are expressed as the level of phosphorylated MOB1 normalized to total MOB1. To confirm that the cellular mechanism of action of our inhibitors was through inhibition of Hippo pathway signaling. […] Inhibition of STK3/4 in vitro and in vivo can produce decreased phosphorylation of the Hippo pathway adapter protein MOB1 at […].
(Immunoblotting shows a protein as a band on a membrane.)

Another test has as its target kinase domain of STK3 (Homo sapiens (Human), UniProt Q13188). In words: Isothermal titration calorimetry (ITC), STK3. Format: binding. As to conditions: 25° C. Here is the method:
as §3, §4

The values below come from patent US20250051337A1 (priority 2021, published 2025).

The structures appear in SMILES notation.

kinase domain of STK4, sequence (Q13043 30-281): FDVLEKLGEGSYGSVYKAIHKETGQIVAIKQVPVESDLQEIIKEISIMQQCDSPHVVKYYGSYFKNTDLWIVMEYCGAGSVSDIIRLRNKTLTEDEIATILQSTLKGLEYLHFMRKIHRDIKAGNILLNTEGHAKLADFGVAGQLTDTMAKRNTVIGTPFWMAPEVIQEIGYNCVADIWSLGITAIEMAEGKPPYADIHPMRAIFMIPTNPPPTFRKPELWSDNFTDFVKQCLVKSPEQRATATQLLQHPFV
STK3, sequence (Q13188 whole entry): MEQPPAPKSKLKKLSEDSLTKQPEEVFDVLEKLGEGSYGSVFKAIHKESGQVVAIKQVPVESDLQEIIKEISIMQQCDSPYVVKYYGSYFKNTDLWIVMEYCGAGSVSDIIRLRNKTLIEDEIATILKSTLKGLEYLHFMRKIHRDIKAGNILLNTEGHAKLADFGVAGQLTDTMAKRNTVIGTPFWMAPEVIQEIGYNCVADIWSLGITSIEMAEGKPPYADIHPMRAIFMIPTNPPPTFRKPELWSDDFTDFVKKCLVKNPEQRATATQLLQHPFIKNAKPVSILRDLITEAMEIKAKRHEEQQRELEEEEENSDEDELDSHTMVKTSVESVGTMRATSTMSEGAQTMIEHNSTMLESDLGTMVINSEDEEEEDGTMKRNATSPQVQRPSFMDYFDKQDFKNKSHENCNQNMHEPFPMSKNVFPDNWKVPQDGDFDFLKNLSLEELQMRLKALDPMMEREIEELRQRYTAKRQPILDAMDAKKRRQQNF
STK4, sequence (Q13043 whole entry): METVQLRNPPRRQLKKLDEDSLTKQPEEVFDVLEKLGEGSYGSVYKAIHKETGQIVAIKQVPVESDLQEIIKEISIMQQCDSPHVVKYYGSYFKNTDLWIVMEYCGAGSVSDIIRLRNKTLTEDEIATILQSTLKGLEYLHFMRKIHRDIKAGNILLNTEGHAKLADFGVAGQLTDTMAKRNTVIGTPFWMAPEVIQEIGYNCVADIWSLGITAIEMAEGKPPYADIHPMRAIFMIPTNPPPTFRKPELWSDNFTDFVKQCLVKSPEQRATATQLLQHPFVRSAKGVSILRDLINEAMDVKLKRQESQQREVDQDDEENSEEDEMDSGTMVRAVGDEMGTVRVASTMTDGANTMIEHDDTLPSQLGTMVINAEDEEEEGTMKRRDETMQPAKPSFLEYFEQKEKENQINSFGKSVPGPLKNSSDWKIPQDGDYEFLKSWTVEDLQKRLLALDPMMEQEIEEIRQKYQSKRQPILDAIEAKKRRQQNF
kinase domain of STK3, sequence (Q13188 27-278): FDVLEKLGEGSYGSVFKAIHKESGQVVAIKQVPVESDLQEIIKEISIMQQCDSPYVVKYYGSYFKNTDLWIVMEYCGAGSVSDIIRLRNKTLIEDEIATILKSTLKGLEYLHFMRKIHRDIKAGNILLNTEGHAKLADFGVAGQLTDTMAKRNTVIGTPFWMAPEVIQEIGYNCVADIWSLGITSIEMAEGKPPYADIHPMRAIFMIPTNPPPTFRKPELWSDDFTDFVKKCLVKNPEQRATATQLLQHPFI

As a reminder, the Ki is the dissociation constant of the complex between target and ligand, obtained from inhibition or displacement. A lower Ki goes with higher affinity. Take `Clc1cccc(-c2c[nH]c3ncnc(N4CCOCC4)c23)c1` [Compound 6, 4-(5-(3-Chlorophenyl)-7H-pyrrolo[2,3-d]pyrimidin-4-yl)morpholine]: the Ki at STK4 turned out to be 52 nM. In addition, the “ITC-KD, STK4” value at kinase domain of STK4 is reported as “low nanomolar affinities”.
`NC(=O)c1cccc(-c2c[nH]c3ncnc(N4CCOCC4)c23)c1` [Compound 11, 3-(4-Morpholino-7H-pyrrolo[2,3-d]pyrimidin-5-yl)benzamide]: the inhibition constant Ki at STK3 was 145 nM.
As for `OC1CCN(c2ncnc3[nH]cc(-c4cccc(Cl)c4)c23)CC1` [Compound 16, 1-(5-(3-Chlorophenyl)-7H-pyrrolo[2,3-d]pyrimidin-4-yl)piperidin-4-ol], the “relative expression level of phosphorylated MOB1” value (“relative expression level” for short) in test [1] was “significant reduction”.
For `Clc1cccc(-c2c[nH]c3nccc(N4CCOCC4)c23)c1` [Compound 23, 4-(3-(3-chlorophenyl)-1H-pyrrolo[2,3-b]pyridin-4-yl)morpholine], on kinase domain of STK3, the “ITC-KD, STK3” value is “low nanomolar affinities”. Also, the “relative expression level” value in test [1] is “significant reduction”. For the same molecule, the figures for the inhibition constant (Ki) at STK4 and at STK3 were 33 nM and 209 nM, respectively. Also, the “ITC-KD, STK4” value at kinase domain of STK4 was “low nanomolar affinities”.
As for `CC(=O)NC1CCN(c2ncnc3[nH]cc(-c4cccc(Cl)c4)c23)CC1` [Compound 105, N-(1-(5-(3-chlorophenyl)-7H-pyrrolo[2,3-d]pyrimidin-4-yl)piperidin-4-yl)acetamide], the “relative expression level” value in test [1] is listed as “significant reduction”.
